# Source: ChEMBL document CHEMBL1765054 (J Med Chem, 2011)
# Columns and labels:
# Type in all cases: ADME, organism-based
# Mus musculus = assay: Bioavailability in C57BL/6 mouse at 10 mg/kg; conditions: in vivo
# [1] = AUC in C57BL/6 mouse at 10 mg/kg, po; parameters: dose 10 mg/kg, route oral; conditions: plasma
# [2] = Cmax in C57BL/6 mouse at 10 mg/kg, po; parameters: dose 10 mg/kg, route oral; conditions: in vivo
# [3] = Cmax in C57BL/6 mouse at 1 mg/kg, iv; parameters: dose 1 mg/kg, route intravenous; conditions: in vivo
# [4] = Volume of distribution at steady state in C57BL/6 mouse at 1 mg/kg, iv; parameters: dose 1 mg/kg, route intravenous; conditions: in vivo, read-out: Vdss
# [5] = Tmax in C57BL/6 mouse at 10 mg/kg, po; parameters: dose 10 mg/kg, route oral; conditions: in vivo
Compound,F (Mus musculus) [%],AUC [1] [ng·h/mL],Cmax [2] [ng/mL],Cmax [3] [ng/mL],Vd [4] [L/kg],Tmax [5] [min]
Nc1ccc(-c2ccc3ncc4ccc(=O)n(-c5cccc(C(F)(F)F)c5)c4c3c2)cn1,51,4310,3970,1540,,
Cc1cc(-n2c(=O)ccc3cnc4ccc(-c5cnn(C)c5)cc4c32)ccc1F,28,2070,1040,,1.08,30
Cc1cc(-n2c(=O)ccc3cnc4ccc(-c5cn[nH]c5)cc4c32)ccc1F,21.6,2410,853,1040,1.16,30
O=c1ccc2cnc3ccc(-c4cnc5[nH]ccc5c4)cc3c2n1-c1ccc(F)c(C(F)(F)F)c1,4.2,352,98,1640,1.3,60
O=c1ccc2cnc3ccc(-c4cn[nH]c4)cc3c2n1-c1ccc(F)c(C(F)(F)F)c1,19.2,755,430,,2.42,30
